The values below come from patent publication US9441023B2, “Peptide YY analogs” (GlaxoSmithKline Intellectual Property Development Limited, priority 2013, dated 2016).

The test in a line: cumulative food intake, lean mice (Model A), BioDaQ system. In kind it is in vivo. The following applies: lean male C57BL/6 mice, 1 mg/kg s.c., relative to vehicle, negative = reduction. As for the experimental part: Cumulative food intake after 6 h was determined for the PYY analogs in either lean (Model A) or diet-induced obese (DIO) (Model B) C57BL/6 mice in a BioDaQ system for continuous monitoring of food intake (Research Diets Inc., New Brunswick, N.J.). […] Mice were placed singly into the BioDaQ cages and acclimatized for a minimum of 6 days and were allowed ad libitum access to food and water. Approximately 1 hour prior to lights-out, animals were dosed subcutaneously with either vehicle (20 mM Acetate buffer, pH 4.9 or 20% DMSO in water) or analogs dissolved in vehicle (1 mg/kg) (8 animals per group). Once all animals have been dosed, feeder gates were opened providing ad-libitum access to food. Continuous food intake was monitored and collected for 15 hours. […] P-values <0.05 were considered to indicate a significant difference between treatment groups.

Where [1] appears, read: Table 1, cumulative food intake after 6 h.

As to `CC(C)C[C@H](NC(=O)[C@H](CO)NC(=O)[C@H](C)NC(=O)[C@H](Cc1ccc(O)cc1)NC(=O)[C@H](Cc1ccc(O)cc1)NC(=O)[C@H](CCCNC(=N)N)NC(=O)[C@H](CC(N)=O)NC(=O)[C@H](CC(C)C)NC(=O)[C@H](CCC(=O)O)NC(=O)[C@H](CCC(=O)O)NC(=O)[C@@H]1CCCN1C(=O)[C@H](CO)NC(=O)[C@H](C)NC(=O)[C@H](CC(=O)O)NC(=O)[C@H](CCCCN)NC(=O)CNC(=O)[C@@H]1CCCN1C(=O)[C@H](C)NC(=O)[C@H](CCC(=O)O)NC(=O)[C@@H]1CCCN1C(=O)[C@H](CCCCN)NC(=O)[C@@H]1CCCN1)C(=O)N[C@@H](CCCNC(=N)N)C(=O)N[C@@H](CCCCN)C(=O)N[C@@H](Cc1ccc(O)cc1)C(=O)N[C@@H](CC(C)C)C(=O)N[C@@H](CC(N)=O)C(=O)N[C@@H](Cc1c[nH]c2ccccc12)C(=O)N[C@@H](CC(C)C)C(=O)N[C@H](C(=O)N[C@@H](CCCNC(=N)N)C(=O)N[C@@H](CCC(N)=O)C(=O)N[C@@H](CCCNC(=N)N)C(=O)N[C@@H](Cc1ccc(O)cc1)C(N)=O)[C@@H](C)O` [Example 2], under setting [1], the “% reduction in food intake, model A” value is recorded as −50%.
Take `CC(C)C[C@H](NC(=O)[C@H](CO)NC(=O)[C@H](C)NC(=O)[C@H](Cc1ccc(O)cc1)NC(=O)[C@H](Cc1ccc(O)cc1)NC(=O)[C@H](CCCNC(=N)N)NC(=O)[C@H](CC(N)=O)NC(=O)[C@H](Cc1c[nH]c2ccccc12)NC(=O)[C@H](CCC(=O)O)NC(=O)[C@H](CCC(=O)O)NC(=O)[C@@H]1CCCN1C(=O)[C@H](CO)NC(=O)[C@H](C)NC(=O)[C@H](CC(=O)O)NC(=O)[C@H](CCCCN)NC(=O)CNC(=O)[C@@H]1CCCN1C(=O)[C@H](C)NC(=O)[C@H](CCC(=O)O)NC(=O)[C@@H]1CCCN1C(=O)[C@H](CCCCN)NC(=O)[C@@H]1CCCN1)C(=O)N[C@@H](CCCNC(=N)N)C(=O)N[C@@H](CCCCN)C(=O)N[C@@H](Cc1ccc(O)cc1)C(=O)N[C@@H](CC(C)C)C(=O)N[C@@H](CC(N)=O)C(=O)N[C@@H](Cc1c[nH]c2ccccc12)C(=O)N[C@@H](CC(C)C)C(=O)N[C@H](C(=O)N[C@@H](CCCNC(=N)N)C(=O)N[C@@H](CCC(N)=O)C(=O)N[C@@H](CCCNC(=N)N)C(=O)N[C@@H](Cc1ccc(O)cc1)C(N)=O)[C@@H](C)O` [Example 6]: under setting [1], the “% reduction in food intake, model A” value is −88%.
On the same count and under the same terms, in the case of `CC(C)C[C@H](NC(=O)[C@H](CC(=O)O)NC(=O)[C@H](C)NC(=O)[C@H](Cc1ccc(O)cc1)NC(=O)[C@H](Cc1ccc(O)cc1)NC(=O)[C@H](CCCNC(=N)N)NC(=O)[C@H](CC(N)=O)NC(=O)[C@H](Cc1c[nH]c2ccccc12)NC(=O)[C@H](CCC(=O)O)NC(=O)[C@H](CCC(=O)O)NC(=O)[C@@H]1CCCN1C(=O)[C@H](CO)NC(=O)[C@H](C)NC(=O)[C@H](CC(=O)O)NC(=O)[C@H](CCCCN)NC(=O)CNC(=O)[C@@H]1CCCN1C(=O)[C@H](C)NC(=O)[C@H](CCC(=O)O)NC(=O)[C@@H]1CCCN1C(=O)[C@H](CCCCN)NC(=O)[C@@H]1CCCN1)C(=O)N[C@@H](CCCNC(=N)N)C(=O)N[C@@H](CCCCN)C(=O)N[C@@H](Cc1ccc(O)cc1)C(=O)N[C@@H](CC(C)C)C(=O)N[C@@H](CC(N)=O)C(=O)N[C@@H](Cc1c[nH]c2ccccc12)C(=O)N[C@H](C(=O)N[C@H](C(=O)N[C@@H](CCCNC(=N)N)C(=O)N[C@@H](CCC(N)=O)C(=O)N[C@@H](CCCNC(=N)N)C(=O)N[C@@H](Cc1ccc(O)cc1)C(N)=O)[C@@H](C)O)C(C)C` [Example 8] it was −74%.
On the same count and under the same terms, the figure for `CC(C)C[C@H](NC(=O)[C@H](CO)NC(=O)[C@H](C)NC(=O)[C@H](Cc1ccc(O)cc1)NC(=O)[C@H](Cc1ccc(O)cc1)NC(=O)[C@H](CCCNC(=N)N)NC(=O)[C@H](CC(N)=O)NC(=O)[C@H](Cc1c[nH]c2ccccc12)NC(=O)[C@H](CCC(=O)O)NC(=O)[C@H](CCC(=O)O)NC(=O)[C@@H]1CCCN1C(=O)[C@H](CO)NC(=O)[C@H](C)NC(=O)[C@H](CC(=O)O)NC(=O)[C@H](CCCCN)NC(=O)CNC(=O)[C@@H]1CCCN1C(=O)[C@H](C)NC(=O)[C@H](CCC(=O)O)NC(=O)[C@@H]1CCCN1C(=O)[C@H](CCCCN)NC(=O)[C@@H]1CCCN1)C(=O)N[C@@H](CCCNC(=N)N)C(=O)N[C@@H](CCCCN)C(=O)N[C@@H](Cc1ccc(O)cc1)C(=O)N[C@@H](CC(C)C)C(=O)N[C@@H](CC(N)=O)C(=O)N[C@@H](Cc1c[nH]c2ccccc12)C(=O)N[C@H](C(=O)N[C@H](C(=O)N[C@@H](CCCNC(=N)N)C(=O)N[C@@H](CCC(N)=O)C(=O)N[C@@H](CCCNC(=N)N)C(=O)N[C@@H](Cc1ccc(O)cc1)C(N)=O)[C@@H](C)O)C(C)C` [Example 10] is −88%.
The same measure, in the same setting: in the case of `CC(C)C[C@H](NC(=O)[C@H](CO)NC(=O)[C@H](C)NC(=O)[C@H](Cc1ccc(O)cc1)NC(=O)[C@H](Cc1ccc(O)cc1)NC(=O)[C@H](CCCNC(=N)N)NC(=O)[C@H](CC(N)=O)NC(=O)[C@H](CC(C)C)NC(=O)[C@H](CCC(=O)O)NC(=O)[C@H](CCC(=O)O)NC(=O)[C@@H]1CCCN1C(=O)[C@H](CO)NC(=O)[C@H](C)NC(=O)[C@H](CC(=O)O)NC(=O)[C@H](CCCCN)NC(=O)CNC(=O)[C@@H]1CCCN1C(=O)[C@H](C)NC(=O)[C@H](CCC(=O)O)NC(=O)[C@@H]1CCCN1C(=O)[C@H](CCCCN)NC(=O)[C@@H]1CCCN1)C(=O)N[C@@H](CCCNC(=N)N)C(=O)N[C@@H](CCCCN)C(=O)N[C@@H](Cc1ccc(O)cc1)C(=O)N[C@@H](CC(C)C)C(=O)N[C@@H](CC(N)=O)C(=O)N[C@@H](Cc1c[nH]c2ccccc12)C(=O)N[C@H](C(=O)N[C@H](C(=O)N[C@@H](CCCNC(=N)N)C(=O)N[C@@H](CCC(N)=O)C(=O)N[C@@H](CCCNC(=N)N)C(=O)N[C@@H](Cc1ccc(O)cc1)C(N)=O)[C@@H](C)O)C(C)C` [Example 31] it was −59%.
Take `CC[C@H](C)[C@H](N)C(=O)N[C@@H](CCCCN)C(=O)N1CCC[C@H]1C(=O)N1CCC[C@H]1C(=O)N[C@@H](Cc1ccc(O)cc1)C(=O)N1CCC[C@H]1C(=O)NCC(=O)N[C@@H](CS)C(=O)N[C@@H](CC(=O)O)C(=O)N[C@@H](C)C(=O)N[C@@H](CO)C(=O)N1CCC[C@H]1C(=O)N[C@@H](CCC(=O)O)C(=O)N[C@@H](CCC(=O)O)C(=O)N[C@@H](CCC(N)=O)C(=O)N[C@@H](CC(N)=O)C(=O)N[C@@H](CCCCN)C(=O)N[C@@H](Cc1ccc(O)cc1)C(=O)N[C@@H](Cc1ccc(O)cc1)C(=O)N[C@@H](C)C(=O)N[C@@H](CO)C(=O)N[C@@H](CC(C)C)C(=O)N[C@@H](CCCNC(=N)N)C(=O)N[C@@H](C)C(=O)N[C@@H](Cc1ccc(O)cc1)C(=O)N[C@@H](Cc1c[nH]c2ccccc12)C(=O)N[C@@H](CC(N)=O)C(=O)N[C@@H](CC(C)C)C(=O)N[C@H](C(=O)N[C@H](C(=O)N[C@@H](CCCNC(=N)N)C(=O)N[C@@H](CCC(N)=O)C(=O)N[C@@H](CCCNC(=N)N)C(=O)N[C@@H](Cc1ccc(O)cc1)C(N)=O)[C@@H](C)O)C(C)C` [Peptide 8]: the “% reduction in food intake, model A” value (Table 2, 6 h time point) was −19%.
Same read-out and setting: the figure for “H-IKPEAPLSKQLEEEAVRYYASLRHYLNLVTRQRY-NH2 [Peptide 2]” is −12%; for “H-PEPEHPGCDASPEDQNKYHASLRKYLNWVTRQRY-NH2 [Peptide 10]” it is −21%; for “H-PKPEAPGCDASPEEWNRYYASLRKYLNWVTRQHY-NH2 [Peptide 14]” it is 24%.
The same measure, in the same setting: the figure for “H-PKPEAPGCDASPEEWNRYYASLRKYLNWVTRQNY-NH2 [Peptide 1]” is 5%; for “H-PKPEAPGEDASPKEWNRYYASLRKYLNWVTRQRY-NH2 [Peptide 3]” it is −30%.
In the case of “H-PQPESPEGNASPEDWACYHAAVRHYVNLITRQRY-NH2 [Peptide 18]”, under “Table 2, 6 h time point”, the “% reduction in food intake, model A” value was −17%.
